Laboratory results: ChEMBL document CHEMBL1138574, “Regioselective synthesis and stereochemical structure of anti-tumor active dispiro[3H-indole-3,2'-pyrrolidine-3',3''-piperidine]-2(1H),4''-diones” (2009)

Assays:
Format in all cases: functional
A549 = experiment: Antitumor activity against human A549 cells assessed as cell growth at 10 uM after 48 hrs by sulforhodamine B assay; details: A549, 48 h, read-out: Activity
EKVX = experiment: Antitumor activity against human EKVX cells assessed as cell growth at 10 uM after 48 hrs by sulforhodamine B assay; details: read-out: Activity
HOP-62 = experiment: Antitumor activity against human HOP62 cells assessed as cell growth at 10 uM after 48 hrs by sulforhodamine B assay; details: HOP-62, 48 h, read-out: Activity
HOP-92 = experiment: Antitumor activity against human HOP92 cells assessed as cell growth at 10 uM after 48 hrs by sulforhodamine B assay; details: HOP-92, 48 h, read-out: Activity
NCI-H460 = experiment: Antitumor activity against human NCI-H460 cells assessed as cell growth at 10 uM after 48 hrs by sulforhodamine B assay; details: NCI-H460, 48 h, read-out: Activity
NCI-H522 = experiment: Antitumor activity against human NCI-H522 cells assessed as cell growth at 10 uM after 48 hrs by sulforhodamine B assay; details: NCI-H522, 48 h, read-out: Activity
HCC 2998 = experiment: Antitumor activity against human HCC2998 cells assessed as cell growth at 10 uM after 48 hrs by sulforhodamine B assay; details: HCC 2998, 48 h, read-out: Activity
HT-29 = experiment: Antitumor activity against human HT-29 cells assessed as cell growth at 10 uM after 48 hrs by sulforhodamine B assay; details: HT-29, 48 h, read-out: Activity
MCF7 = experiment: Antitumor activity against human MCF7 cells assessed as cell growth at 10 uM after 48 hrs by sulforhodamine B assay; details: MCF7, 48 h, read-out: Activity
MDA-MB-435 = experiment: Antitumor activity against human MDA-MB-435 cells assessed as cell growth at 10 uM after 48 hrs by sulforhodamine B assay; details: MDA-MB-435, 48 h, read-out: Activity
MDA-MB-468 = experiment: Antitumor activity against human MDA-MB-468 cells assessed as cell growth at 10 uM after 48 hrs by sulforhodamine B assay; details: MDA-MB-468, 48 h, read-out: Activity
T47D = experiment: Antitumor activity against human T47D cells assessed as cell growth at 10 uM after 48 hrs by sulforhodamine B assay; details: read-out: Activity
OVCAR-3 = experiment: Antitumor activity against human OVCAR-3 cells assessed as cell growth at 10 uM after 48 hrs by sulforhodamine B assay; details: OVCAR-3, 48 h, read-out: Activity
OVCAR-5 = experiment: Antitumor activity against human OVCAR5 cells assessed as cell growth at 10 uM after 48 hrs by sulforhodamine B assay; details: OVCAR-5, 48 h, read-out: Activity
OVCAR-8 = experiment: Antitumor activity against human OVCAR8 cells assessed as cell growth at 10 uM after 48 hrs by sulforhodamine B assay; details: OVCAR-8, 48 h, read-out: Activity
SK-OV-3 = experiment: Antitumor activity against human SKOV3 cells assessed as cell growth at 10 uM after 48 hrs by sulforhodamine B assay; details: SK-OV-3, 48 h, read-out: Activity
K562 = experiment: Antitumor activity against human K562 cells assessed as cell growth at 10 uM after 48 hrs by sulforhodamine B assay; details: K562, 48 h, read-out: Activity
SR = experiment: Antitumor activity against human SR cells assessed as cell growth at 10 uM after 48 hrs by sulforhodamine B assay; details: read-out: Activity
A498 = experiment: Antitumor activity against human A498 cells assessed as cell growth at 10 uM after 48 hrs by sulforhodamine B assay; details: A498, 48 h, read-out: Activity
TK-10 = experiment: Antitumor activity against human TK10 cells assessed as cell growth at 10 uM after 48 hrs by sulforhodamine B assay; details: TK-10, 48 h, read-out: Activity
M14 = experiment: Antitumor activity against human M14 cells assessed as cell growth at 10 uM after 48 hrs by sulforhodamine B assay; details: M14, 48 h, read-out: Activity
Malme-3M = experiment: Antitumor activity against human MALME-3M cells assessed as cell growth at 10 uM after 48 hrs by sulforhodamine B assay; details: read-out: Activity
UACC-62 = experiment: Antitumor activity against human UACC62 cells assessed as cell growth at 10 uM after 48 hrs by sulforhodamine B assay; details: UACC-62, 48 h, read-out: Activity
PC-3 = experiment: Antitumor activity against human PC3 cells assessed as cell growth at 10 uM after 48 hrs by sulforhodamine B assay; details: PC-3, 48 h, read-out: Activity
SNB-75 = experiment: Antitumor activity against human SNB75 cells assessed as cell growth at 10 uM after 48 hrs by sulforhodamine B assay; details: SNB-75, 48 h, read-out: Activity
U-251 = experiment: Antitumor activity against human U251 cells assessed as cell growth at 10 uM after 48 hrs by sulforhodamine B assay; details: U-251, 48 h, read-out: Activity
Rattus norvegicus [1] = experiment: Antiinflammatory activity in Wister albino rat assessed as inhibition of carrageenan-induced paw oedema at 50 mg/kg, ip administered 1 hr before carrageenan challenge measured after 4 hrs of induction of inflammation relative to control; details: route intraperitoneal
Rattus norvegicus [2] = experiment: Antiinflammatory activity in Wister albino rat assessed as inhibition of carrageenan-induced paw oedema at 50 mg/kg, ip administered 1 hr before carrageenan challenge measured after 4 hrs of induction of inflammation relative to indomethacin; details: route intraperitoneal
SF-295 = experiment: Antitumor activity against human SF295 cells assessed as cell growth at 10 uM after 48 hrs by sulforhodamine B assay; details: SF-295, 48 h, read-out: Activity

| Structure (SMILES) | growth at 10 µM (A549) [%] | growth at 10 µM (EKVX) [%] | growth at 10 µM (HOP-62) [%] | growth at 10 µM (HOP-92) [%] | growth at 10 µM (NCI-H460) [%] | growth at 10 µM (NCI-H522) [%] | growth at 10 µM (HCC 2998) [%] | growth at 10 µM (HT-29) [%] | growth at 10 µM (MCF7) [%] | growth at 10 µM (MDA-MB-435) [%] | growth at 10 µM (MDA-MB-468) [%] | growth at 10 µM (T47D) [%] | growth at 10 µM (OVCAR-3) [%] | growth at 10 µM (OVCAR-5) [%] | growth at 10 µM (OVCAR-8) [%] | growth at 10 µM (SK-OV-3) [%] | growth at 10 µM (K562) [%] | growth at 10 µM (SR) [%] | growth at 10 µM (A498) [%] | growth at 10 µM (TK-10) [%] | further results |
| --- | --- | --- | --- | --- | --- | --- | --- | --- | --- | --- | --- | --- | --- | --- | --- | --- | --- | --- | --- | --- | --- |
| CN1C/C(=C\c2ccc(-c3cccs3)cc2)C(=O)[C@]2(C1)[C@@H](c1ccc(-c3cccs3)cc1)CN(C)[C@@]21C(=O)N(C)c2ccccc21 | 58 | 47.1 | 58.8 | 41.1 | 52.1 | 49.4 | 40.6 | 56.1 | 50.4 | 40.6 | 33.4 | 22.7 | 33.6 | 103 | 65.7 | 59.5 | 59.5 | 30.5 | 46.5 | 78.8 | growth at 10 µM (M14): 58.5%; growth at 10 µM (Malme-3M): 76.4%; growth at 10 µM (UACC-62): 47.6%; growth at 10 µM (PC-3): 17.8%; growth at 10 µM (SNB-75): 64.5%; growth at 10 µM (U-251): 62.8%; inhibition in vivo at 50 mg/kg (Rattus norvegicus [1]): 69.8%; inhibition in vivo at 50 mg/kg (Rattus norvegicus [2]): 124% |
| COc1ccc(/C=C2\CN(C)C[C@@]3(C2=O)[C@@H](c2ccccc2)CN(C)[C@@]32C(=O)Nc3ccccc32)cc1 | 44.4 | 64.2 | 69.9 | 46.7 | 52.3 | 50.2 | 65.5 | 58.1 | 30.9 | 60.7 | 58.9 | 31.6 | 50.3 | 92.5 | 52.4 | 75.6 | 73.3 | 52.3 | 32.5 | 73.1 | growth at 10 µM (M14): 55.6%; growth at 10 µM (Malme-3M): 58.7%; growth at 10 µM (UACC-62): 47.8%; growth at 10 µM (PC-3): 21%; growth at 10 µM (SNB-75): 59.4%; growth at 10 µM (U-251): 52.1%; inhibition in vivo at 50 mg/kg (Rattus norvegicus [1]): 78.7%; inhibition in vivo at 50 mg/kg (Rattus norvegicus [2]): 139% |
| CN1C/C(=C\c2ccc(Cl)cc2)C(=O)[C@]2(C1)[C@@H](c1ccc(Cl)cc1)CN(C)[C@@]21C(=O)Nc2ccccc21 | 62.4 | 37.2 | 73.6 | 56.2 | 66.7 | 59.8 | 70.7 | 59.5 | 44.9 | 61.1 | 56.6 | 46.1 | 48.4 | 94.2 | 69.4 | 80.6 | 45.1 | 67.5 | 55.3 | 88.6 | growth at 10 µM (M14): 78.3%; growth at 10 µM (Malme-3M): 91.9%; growth at 10 µM (UACC-62): 67.2%; growth at 10 µM (PC-3): 24.9%; growth at 10 µM (SF-295): 64.5%; growth at 10 µM (SNB-75): 56.7%; growth at 10 µM (U-251): 64.8%; inhibition in vivo at 50 mg/kg (Rattus norvegicus [1]): 42.2%; inhibition in vivo at 50 mg/kg (Rattus norvegicus [2]): 74.7% |
| CN1C/C(=C\c2ccc(Cl)cc2)C(=O)[C@]2(C1)[C@@H](c1ccc(Cl)cc1)CN(C)[C@@]21C(=O)N(C)c2ccccc21 | 70 | 42.1 | 71 | 61.6 | 71.5 | 56.4 | 71.9 | 68.4 | 86.4 | 87.8 | 66.9 | 46.7 | 60.5 | 87.7 | 79.5 | 85.2 | 30.4 | 70.3 | 69.4 | 81.8 | growth at 10 µM (M14): 77.8%; growth at 10 µM (Malme-3M): 73.5%; growth at 10 µM (UACC-62): 59.9%; growth at 10 µM (PC-3): 32.5%; growth at 10 µM (SF-295): 65.6%; growth at 10 µM (SNB-75): 65.2%; growth at 10 µM (U-251): 68.6%; inhibition in vivo at 50 mg/kg (Rattus norvegicus [1]): 45.7%; inhibition in vivo at 50 mg/kg (Rattus norvegicus [2]): 80.9% |
